Test results from PMC6271467, “The Anthraquinone Derivatives from the Fungus Alternaria sp. XZSBG-1 from the Saline Lake in Bange, Tibet, China” (Molecules, 2014).

Experiments:
Format in all cases: cell-based
MCF-7/ADR = test: Cytotoxicity, MTT assay, MCF-7/ADR; conditions: Homo sapiens, NCI/ADR-RES, 48 h exposure, MCF-7/ADR cells
Description: (§1) Compounds 1–11 were evaluated for cytotoxic activity against several human cancer cell lines by MTT assay. […] The other compounds show no notable inhibitory activity against any tested cancer cell lines.
(§2) MCF-7/ADR, HeLa, HCT-116 cell lines were cultured in Dulbeccos’ modification Eagle’s medium (DMEM, Invitrogen, Carlsbad, CA, USA) supplemented with 10% fetal bovine serum (FBS, Hyclone, Logan, UT, USA), 2 mM L-glutamine, 100 μg/mL streptomycin and 100 U/mL penicillin (Invitrogen). The cells were incubated at 37 °C in a humidified atmosphere with 5% CO2.
(§3) Cells were harvested during logarithmic growth phase and seeded in 96-well plates at a density of 1 × 10^4 cells/mL, and cultured at 37 °C in a humidified incubator (5% CO2) for 24 h, followed by exposure to various concentrations of compounds tested for 48 h. Subsequently 20 μL of MTT (Genview, Houston, TX, USA) solution (5 mg/mL) was added to each well and mixed, the cells were then incubated for an additional 4 h. Culture supernatant was moved, 150 μL of DMSO (Sangon Biotech, Shanghai, China) was added to each well to fully dissolve the MTT-formazan crystals. Cell growth inhibition was determined by measuring the absorbance (Abs) at λ = 570 nm using a microplate reader and calculated according to the following equation: Growth inhibition = (1 − OD of treated cells/OD of control cells) × 100%
(§4) The half maximal inhibitory concentrations (IC50) were obtained from liner regression analysis of the concentration-response curves plotted for each tested compound [17, 18].

HCT-116 = test: Cytotoxicity, MTT assay, HCT-116; conditions: Homo sapiens, 48 h exposure, HCT-116 cells
Description: as §1, §2, §3, §4

HeLa = test: Cytotoxicity, MTT assay, HeLa; conditions: Homo sapiens, 48 h exposure, HeLa cells
Description: as §1, §2, §3, §4

Row | SMILES | IC50 (MCF-7/ADR) [µM] | IC50 (HCT-116) [µM] | IC50 (HeLa) [µM]
1 | COc1cc(O)c2c(c1)C(=O)C13OC1(C2=O)[C@H](O)[C@@H](O)[C@@](C)(O)[C@H]3O (relative stereo) [Compound 1, (1R*,2R*,3R*,4R*)-1,2,3,4,8-pentahydroxy-6-methoxy-3-methyl-1,2,3,4-tetrahydro-4a,9a-epoxyanthracene-9,10-dione] | 18.5 | 23.2 ± 2.85 | 43.7 ± 4.02
2 | COc1cc(O)c2c(c1)C(=O)C1=C(C2=O)[C@H]([C@H]2C3=C(C(=O)c4cc(OC)cc(O)c4C3=O)[C@H](O)[C@](C)(O)[C@H]2O)[C@H](O)[C@@](C)(O)[C@H]1O (relative stereo) [Compound 2, (1S*,1'S*,2R*,2'R*,3S*,3'S*,4S*,4'S*)-1,1',2,2',3,3',5,5'-octahydroxy-7,7'-dimethoxy-2,2'-dimethyl-1,1',2,2',3,3',4,4'-octahydro-[4,4'-bianthracene]-9,9',10,10'-tetraone] | > 100 | > 50 | > 50
3 | COc1cc(O)c2c(c1-c1c(OC)cc(O)c3c1C(=O)c1cc(C)c(O)cc1C3=O)C(=O)C1=C(C2=O)[C@H](O)[C@@H](O)[C@@](C)(O)[C@H]1O (relative stereo) [Compound 3, (1S*,2R*,3S*,4S*)-1,2,2',3,4,8,8'-heptahydroxy-6,6'-dimethoxy-3,3'-dimethyl-1,2,3,4-tetrahydro-[5,5'-bianthracene]-9,9',10,10'-tetraone] |  | 32.4 ± 1.57 | > 50
4 | COc1cc(O)c2c(c1-c1c(OC)cc(O)c3c1C(=O)c1cc(C)c(O)cc1C3=O)C(=O)C1=C(C2=O)[C@@H](O)[C@@H](O)[C@@](C)(O)[C@H]1O (relative stereo) [Compound 4, (1R*,2R*,3S*,4S*)-1,2,2',3,4,8,8'-heptahydroxy-6,6'-dimethoxy-3,3' dimethyl-1,2,3,4-tetrahydro-5,5'-bianthracene-9,9',10,10'-tetraone] | > 50 | > 50 | > 100
5 | COc1cc2c(c(-c3c(O)c(OC)cc4c3C(=O)C3=C(C4=O)[C@@H](O)[C@H](O)[C@](C)(O)[C@@H]3O)c1O)C(=O)C1=C(C2=O)[C@@H](O)[C@H](O)[C@](C)(O)[C@@H]1O [Compound 5, alterporriol E] | > 100 | > 100 | > 100
6 | COc1cc(O)c2c(c1-c1c(OC)cc(O)c3c1C(=O)C1=C(C3=O)[C@@H](O)[C@H](O)[C@](C)(O)[C@@H]1O)C(=O)C1=C(C2=O)[C@@H](O)[C@H](O)[C@](C)(O)[C@@H]1O [Compound 6, alterporriol D] | > 100 | > 100 | > 100
7 | COc1cc(O)c2c(c1)C(=O)c1cc(C)c(O)c(-c3c(OC)cc(O)c4c3C(=O)C3=C(C4=O)[C@H](O)[C@@H](O)[C@@](C)(O)[C@H]3O)c1C2=O [Compound 7, alterporriol N] | > 100 | > 100 | > 100
8 | COc1cc(O)c2c(c1-c1c(OC)cc(O)c3c1C(=O)c1cc(C)c(O)cc1C3=O)C(=O)C1=C(C2=O)[C@@H](O)[C@H](O)[C@](C)(O)[C@H]1O [Compound 8, alterporriol A] | 45 | > 50 | > 50
9 | COc1cc(O)c2c(c1)C(=O)C1=C(C[C@@H](O)[C@@](C)(O)[C@@H]1O)C2=O [Compound 9, altersolanol C] | > 100 | 3.03 ± 0.05 | 8.09 ± 0.89
10 | COc1cc(O)c2c(c1)C(=O)C1=C(C2=O)[C@H](O)[C@@H](O)[C@@](C)(O)[C@@H]1O [Compound 10, altersolanol A] | > 100 | > 100 | > 100
11 | COc1cc(O)c2c(c1)C(=O)c1cc(C)c(O)cc1C2=O [Compound 11, macrosporin] | > 100 | > 100 | > 100
12 | COc1cccc2c1C(=O)c1c(O)c3c(c(O)c1C2=O)C[C@@](O)(C(=O)CO)C[C@@H]3O[C@H]1C[C@H](N)[C@@H](O)[C@H](C)O1 [EPI, Epirubicin, reference compound] | 2.36 | 0.96 ± 0.02 | 0.48 ± 0.03
